Laboratory results taken from ChEMBL document CHEMBL3085649, “2'-Deoxyuridine 5'-monophosphate substrate displacement in thymidylate synthase through 6-hydroxy-2H-naphtho[1,8-bc]furan-2-one derivatives” (J Med Chem, 2013).
The source made the active and inactive calls. No cut-off for these calls is given here.

Assays:
[1] = molecular target: T1, Thymidylate synthase (Lactobacillus casei, UniProt P00469); experiment: Inhibition of Lactobacillus casei thymidylate synthase using MTHF and dUMP as substrates; set-up: species or system Lacticaseibacillus casei
T1 sequence (P00469 whole entry): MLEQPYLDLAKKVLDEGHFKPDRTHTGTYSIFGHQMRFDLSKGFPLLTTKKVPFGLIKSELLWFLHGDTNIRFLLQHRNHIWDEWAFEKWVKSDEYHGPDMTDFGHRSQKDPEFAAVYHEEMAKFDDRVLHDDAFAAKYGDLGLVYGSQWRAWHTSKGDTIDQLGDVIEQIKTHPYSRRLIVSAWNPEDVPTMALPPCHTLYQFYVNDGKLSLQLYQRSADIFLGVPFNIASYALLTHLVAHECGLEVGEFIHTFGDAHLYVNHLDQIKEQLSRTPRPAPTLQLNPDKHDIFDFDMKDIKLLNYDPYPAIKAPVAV

[2] = molecular target: Thymidylate synthase (Homo sapiens) (UniProt P04818); experiment: Inhibition of human thymidylate synthase using MTHF and dUMP as substrates at 100 uM
Thymidylate synthase (Homo sapiens), sequence (P04818 2-313 limits assumed): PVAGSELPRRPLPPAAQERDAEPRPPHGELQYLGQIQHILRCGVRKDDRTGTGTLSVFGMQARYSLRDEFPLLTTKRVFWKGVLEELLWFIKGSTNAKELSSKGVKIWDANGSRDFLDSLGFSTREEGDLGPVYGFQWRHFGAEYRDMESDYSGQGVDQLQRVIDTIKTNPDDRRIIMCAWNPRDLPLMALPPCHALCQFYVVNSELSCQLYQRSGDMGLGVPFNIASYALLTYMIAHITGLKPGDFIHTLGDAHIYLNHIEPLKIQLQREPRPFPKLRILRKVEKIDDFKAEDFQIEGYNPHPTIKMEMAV

[3] = molecular target: T2, Thymidylate synthase (Pneumocystis carinii) (UniProt P13100); experiment: Inhibition of Pneumocystis carinii thymidylate synthase using MTHF and dUMP as substrates at 100 uM
T2 sequence (whole entry): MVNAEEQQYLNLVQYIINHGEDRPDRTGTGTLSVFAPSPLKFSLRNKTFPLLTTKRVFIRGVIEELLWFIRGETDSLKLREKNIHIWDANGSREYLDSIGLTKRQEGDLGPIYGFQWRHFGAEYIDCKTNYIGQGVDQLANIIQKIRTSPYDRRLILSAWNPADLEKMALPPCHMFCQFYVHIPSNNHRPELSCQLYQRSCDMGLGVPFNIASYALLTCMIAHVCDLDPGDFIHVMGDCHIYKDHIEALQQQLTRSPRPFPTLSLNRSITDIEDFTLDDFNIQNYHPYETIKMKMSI

[4] = test system: Escherichia coli; experiment: Inhibition of Escherichia coli thymidylate synthase using MTHF and dUMP as substrates at 100 uM
[5] = Inhibition of Enterococcus fecalis thymidylate synthase using MTHF and dUMP as substrates; set-up: species or system Enterococcus faecalis
[6] = molecular target: T3, Thymidylate synthase (Pneumocystis carinii, UniProt P13100); experiment: Inhibition of Pneumocystis carinii thymidylate synthase using MTHF and dUMP as substrates
T3 sequence (P13100 whole entry): T2 sequence (whole entry)

[7] = Inhibition of Escherichia coli thymidylate synthase using MTHF and dUMP as substrates
[8] = test system: Enterococcus faecalis; experiment: Inhibition of Enterococcus fecalis thymidylate synthase using MTHF and dUMP as substrates at 100 uM
[9] = molecular target: T4, Thymidylate synthase (Lactobacillus casei) (UniProt P00469); experiment: Inhibition of Lactobacillus casei thymidylate synthase using MTHF and dUMP as substrates at 100 uM; settings: Lacticaseibacillus casei
T4 sequence (whole entry): T1 sequence (P00469 whole entry)

Ki [1]	inhibition [2]	inhibition [3]	inhibition [4]	Ki [5]	Ki [6]	inhibition [8]	inhibition [9]	Compound	Ki [7]
33 µM	inactive	inactive	inactive	41 µM				O=C(Oc1ccc2c3c(cccc13)C(=O)O2)c1cccc(C(F)(F)F)c1	
10 µM				41 µM	19 µM			C=CC(=O)Oc1ccc2c3c(cccc13)C(=O)O2	
10 µM				37 µM	34 µM			CCOC(=O)Oc1ccc2c3c(cccc13)C(=O)O2	67 µM
49 µM	inactive				18 µM	inactive		O=C1Oc2ccc(OC(=O)C3CCCCC3)c3cccc1c23	66 µM
1.2 µM				27 µM	3.5 µM			O=C(Oc1ccc2c3c(cccc13)C(=O)O2)c1ccc([N+](=O)[O-])cc1	6 µM
	inactive	inactive	inactive			inactive	inactive	O=C(Oc1ccc2c3c(cccc13)C(=O)O2)c1ccc(SC(F)(F)F)cc1	
13 µM			inactive	20 µM	15 µM			O=C(Oc1ccc2c3c(cccc13)C(=O)O2)c1ccco1	
0.39 µM				14 µM	0.31 µM			N#Cc1cccc(C(=O)Oc2ccc3c4c(cccc24)C(=O)O3)c1	4 µM
6 µM	inactive		inactive		10 µM	inactive		C/C=C/C(=O)Oc1ccc2c3c(cccc13)C(=O)O2	
	inactive	inactive	inactive			inactive	inactive	O=C(Oc1ccc2c3c(cccc13)C(=O)O2)c1ccc2c(c1)OCO2	
9 µM	inactive	inactive	inactive			inactive		CC(C)COC(=O)Oc1ccc2c3c(cccc13)C(=O)O2	
